In article PMC6019379, “RecA-like domain 2 of DNA-dependent ATPase A domain, a SWI2/SNF2 protein, mediates conformational integrity and ATP hydrolysis” (Bioscience Reports, 2018):

Legend:
Assay type in all cases: binding
[1] = molecular target: T1, ADAAD (Active DNA-dependent ATPase A domain) (Bos taurus, UniProt Q9TTA5, R815A); assay: intrinsic tryptophan fluorescence titration (ex […] nm, em […] nm), one-site fit
T1 construct: gene SMARCAL1; ATPase domain fragment of bovine SMARCAL1 (RecA-like domains 1 and 2), plasmid pCP101 (pET-14b, NdeI/XhoI), E. coli BL21(DE3), Ni-NTA then DEAE-sepharose; tag removal not mentioned

[2] = molecular target: T2, ADAAD (Active DNA-dependent ATPase A domain) (Bos taurus, UniProt Q9TTA5, R815K); assay: as above
T2 construct: gene SMARCAL1; ATPase domain fragment of bovine SMARCAL1 (RecA-like domains 1 and 2), plasmid pCP101 (pET-14b, NdeI/XhoI), E. coli BL21(DE3), Ni-NTA then DEAE-sepharose; tag removal not mentioned

[3] = molecular target: T3, ADAAD (Active DNA-dependent ATPase A domain) (Bos taurus, UniProt Q9TTA5, R812A); assay: as above
T3 construct: gene SMARCAL1; ATPase domain fragment of bovine SMARCAL1 (RecA-like domains 1 and 2), plasmid pCP101 (pET-14b, NdeI/XhoI), E. coli BL21(DE3), Ni-NTA then DEAE-sepharose; tag removal not mentioned

[4] = molecular target: T4, ADAAD (Active DNA-dependent ATPase A domain) (Bos taurus, UniProt Q9TTA5, D811H); assay: as above
T4 construct: gene SMARCAL1; ATPase domain fragment of bovine SMARCAL1 (RecA-like domains 1 and 2), plasmid pCP101 (pET-14b, NdeI/XhoI), E. coli BL21(DE3), Ni-NTA then DEAE-sepharose; tag removal not mentioned

[5] = molecular target: T5, ADAAD (Active DNA-dependent ATPase A domain) (Bos taurus, UniProt Q9TTA5, F727W); assay: as above
T5 construct: gene SMARCAL1; ATPase domain fragment of bovine SMARCAL1 (RecA-like domains 1 and 2), plasmid pCP101 (pET-14b, NdeI/XhoI), E. coli BL21(DE3), Ni-NTA then DEAE-sepharose; tag removal not mentioned

[6] = molecular target: T6, ADAAD (Active DNA-dependent ATPase A domain) (Bos taurus, UniProt Q9TTA5, H814A); assay: as above
T6 construct: gene SMARCAL1; ATPase domain fragment of bovine SMARCAL1 (RecA-like domains 1 and 2), plasmid pCP101 (pET-14b, NdeI/XhoI), E. coli BL21(DE3), Ni-NTA then DEAE-sepharose; tag removal not mentioned

[7] = molecular target: T7, ADAAD (Active DNA-dependent ATPase A domain) (Bos taurus, UniProt Q9TTA5, S778A); assay: as above
T7 construct: gene SMARCAL1; ATPase domain fragment of bovine SMARCAL1 (RecA-like domains 1 and 2), plasmid pCP101 (pET-14b, NdeI/XhoI), E. coli BL21(DE3), Ni-NTA then DEAE-sepharose; tag removal not mentioned

[8] = molecular target: T8, ADAAD (Active DNA-dependent ATPase A domain) (Bos taurus, UniProt Q9TTA5, T780A); assay: as above
T8 construct: gene SMARCAL1; ATPase domain fragment of bovine SMARCAL1 (RecA-like domains 1 and 2), plasmid pCP101 (pET-14b, NdeI/XhoI), E. coli BL21(DE3), Ni-NTA then DEAE-sepharose; tag removal not mentioned

[9] = molecular target: T9, ADAAD (Active DNA-dependent ATPase A domain) (Bos taurus, UniProt Q9TTA5, D811H/H549D); assay: as above
T9 construct: gene SMARCAL1; ATPase domain fragment of bovine SMARCAL1 (RecA-like domains 1 and 2), plasmid pCP101 (pET-14b, NdeI/XhoI), E. coli BL21(DE3), Ni-NTA then DEAE-sepharose; tag removal not mentioned

[10] = molecular target: T10, ADAAD (Active DNA-dependent ATPase A domain) (Bos taurus, UniProt Q9TTA5, F727A); assay: as above
T10 construct: gene SMARCAL1; ATPase domain fragment of bovine SMARCAL1 (RecA-like domains 1 and 2), plasmid pCP101 (pET-14b, NdeI/XhoI), E. coli BL21(DE3), Ni-NTA then DEAE-sepharose; tag removal not mentioned

[11] = molecular target: T11, ADAAD (Active DNA-dependent ATPase A domain) (Bos taurus, UniProt Q9TTA5, F727A/R812A); assay: as above
T11 construct: gene SMARCAL1; ATPase domain fragment of bovine SMARCAL1 (RecA-like domains 1 and 2), plasmid pCP101 (pET-14b, NdeI/XhoI), E. coli BL21(DE3), Ni-NTA then DEAE-sepharose; tag removal not mentioned

[12] = molecular target: T12, ADAAD (Active DNA-dependent ATPase A domain) (Bos taurus, UniProt Q9TTA5, R815H); assay: as above
T12 construct: gene SMARCAL1; ATPase domain fragment of bovine SMARCAL1 (RecA-like domains 1 and 2), plasmid pCP101 (pET-14b, NdeI/XhoI), E. coli BL21(DE3), Ni-NTA then DEAE-sepharose; tag removal not mentioned

[13] = molecular target: T13, ADAAD (Active DNA-dependent ATPase A domain) (Bos taurus, UniProt Q9TTA5); assay: intrinsic tryptophan fluorescence titration (ex […] nm, em […] nm); details: representative spectra only
T13 construct: gene SMARCAL1; ATPase domain fragment of bovine SMARCAL1 (RecA-like domains 1 and 2), plasmid pCP101 (pET-14b, NdeI/XhoI), E. coli BL21(DE3), Ni-NTA then DEAE-sepharose; tag removal not mentioned
T13 sequence (Q9TTA5 221-940 limits assumed): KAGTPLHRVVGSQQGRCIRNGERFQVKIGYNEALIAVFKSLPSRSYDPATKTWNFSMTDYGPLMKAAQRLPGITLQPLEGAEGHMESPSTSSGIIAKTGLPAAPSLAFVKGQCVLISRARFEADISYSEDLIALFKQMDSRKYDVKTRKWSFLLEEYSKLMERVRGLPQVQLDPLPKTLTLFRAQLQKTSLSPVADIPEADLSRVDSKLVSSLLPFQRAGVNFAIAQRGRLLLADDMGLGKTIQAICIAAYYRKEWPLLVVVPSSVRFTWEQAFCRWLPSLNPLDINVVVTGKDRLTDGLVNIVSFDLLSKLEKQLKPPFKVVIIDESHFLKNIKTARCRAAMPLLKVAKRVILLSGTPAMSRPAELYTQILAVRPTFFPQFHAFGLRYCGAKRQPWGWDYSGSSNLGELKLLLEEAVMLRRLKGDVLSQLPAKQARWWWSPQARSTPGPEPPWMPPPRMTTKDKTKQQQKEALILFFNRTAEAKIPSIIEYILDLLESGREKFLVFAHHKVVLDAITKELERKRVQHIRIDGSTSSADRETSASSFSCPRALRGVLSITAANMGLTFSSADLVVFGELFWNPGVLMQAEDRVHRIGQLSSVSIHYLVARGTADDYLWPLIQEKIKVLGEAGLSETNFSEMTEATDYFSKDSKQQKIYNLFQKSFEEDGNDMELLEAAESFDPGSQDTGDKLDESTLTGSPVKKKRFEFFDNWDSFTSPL

T6 sequence (Q9TTA5 221-940 H814A limits assumed): as the sequence (Q9TTA5 221-940 limits assumed) above, with H594A counted along it
T3 sequence (Q9TTA5 221-940 R812A limits assumed): as the sequence (Q9TTA5 221-940 limits assumed) above, with R592A counted along it
T10 sequence (Q9TTA5 221-940 F727A limits assumed): as the sequence (Q9TTA5 221-940 limits assumed) above, with F507A counted along it
T8 sequence (Q9TTA5 221-940 T780A limits assumed): as the sequence (Q9TTA5 221-940 limits assumed) above, with T560A counted along it
T12 sequence (Q9TTA5 221-940 R815H limits assumed): as the sequence (Q9TTA5 221-940 limits assumed) above, with R595H counted along it
T2 sequence (Q9TTA5 221-940 R815K limits assumed): as the sequence (Q9TTA5 221-940 limits assumed) above, with R595K counted along it
T7 sequence (Q9TTA5 221-940 S778A limits assumed): as the sequence (Q9TTA5 221-940 limits assumed) above, with S558A counted along it
T1 sequence (Q9TTA5 221-940 R815A limits assumed): as the sequence (Q9TTA5 221-940 limits assumed) above, with R595A counted along it
T11 sequence (Q9TTA5 221-940 F727A/R812A limits assumed): as the sequence (Q9TTA5 221-940 limits assumed) above, with F507A, R592A counted along it
T4 sequence (Q9TTA5 221-940 D811H limits assumed): as the sequence (Q9TTA5 221-940 limits assumed) above, with D591H counted along it
T5 sequence (Q9TTA5 221-940 F727W limits assumed): as the sequence (Q9TTA5 221-940 limits assumed) above, with F507W counted along it
T9 sequence (Q9TTA5 221-940 H549D/D811H limits assumed): as the sequence (Q9TTA5 221-940 limits assumed) above, with H329D, D591H counted along it

Compound `Nc1ncnc2c1ncn2[C@@H]1O[C@H](COP(=O)(O)OP(=O)(O)OP(=O)(O)O)[C@@H](O)[C@H]1O` [ATP] has a Kd [1] of 1200 nM, a Kd [2] of 1200 nM and a Kd [3] of 1600 nM. The Kd [4] was 3200 nM, the Kd [5] was 1000 nM and the Kd [6] was 1600 nM. The Kd [7] was 1900 nM, the Kd [8] was 1000 nM and the Kd [9] was 2800 nM. It also gave a Kd [10] of 1600 nM, a Kd [11] of 1700 nM and a Kd [12] of 1300 nM. For the same compound, the “intrinsic tryptophan fluorescence titration (ex 295 nm, em 340 nm)” value [13] was “Representative fluorescence spectra of ADAAD titrated with (A). ATP; (B) DNA”.
